US12384765B2, “Catecholamine prodrugs for use in the treatment of Parkinson's Disease” (H. Lundbeck A/S, priority 2019, dated 2025)
Entries after “also recorded” stand apart in the source; their conditions may differ.

Legend:
human hepatocytes = assay: Conversion of compounds in human hepatocytes; format: in vitro ADME; details: 1 μM compound, 37° C.; nd: not detected
Experimental: Incubations were conducted in 96-well plates at 1 μM compound concentration in duplicate. The hepatocyte cell concentration was 0.5×10^6 cells/mL used for final incubation at 37° C. in an incubator of 5% CO2 95% relative humidity. The medium control samples were included at 0 and 60 minutes in the absence of cells. The total organic concentration was 1% (DMSO 0.1%) in the final incubation. The controls, (7-ethoxycoumarin and 7-hydroxycoumarin) was incubated parallel at 3 μM. 2 μL of dosing solution (50 μM for test compounds and 100 μM for positive control) was mixed with 98 μL of 100 mM PBS to achieve 1 μM test compound and 2 μM positive control of final concentration. The mixture was incubated, and samples were withdrawn from the incubations at pre-determined time points of 0, 0.5, 1, 2, 4 and 6 hr (in duplicate) at 37° C. in water bath. To each sample, 10 μL inhibitor and 20 μL ascorbic acid and 2 μL formic acid (20%) were added followed by 400 μL of stop solution (200 ng/mL tolbutamide plus 200 ng/mL labetalol in 50% ACN/MeOH). The substance was mixed thoroughly and thereafter centrifuged at 4,000 rpm for 20 minutes. An aliquot of supernatant (50 μL) from each well were transferred to a sample plate and mixed with 100 μL ultrapure water. The plate was shaked at 800 rpm for about 10 minutes before submitting to LC-MS/MS analysis.
(§1) Mass spectrometer (LC-MS/MS) Shimadzu LC 20-AD Shimadzu UHPLC API 4000. Analytical column ACQUITY UPLC® BEH Phenyl 1.7 μm 2.1×50 mm. Mobile phase A: 0.1% Formic Acid in Water. Mobile phase B: 0.1% Formic Acid in Acetonitrile. […] Flow rate 0.7 mL/min.

[1] = Conversion of compounds in human plasma; format: in vitro ADME; details: 1 μM test compound, 37° C., 0-6 hr; nd: not detected
Experimental: Frozen human plasma was thawed and then centrifuged at 3200×g for 5 min to remove debris. The pH value of the supernatant was then measured and adjusted to 7.4±0.1 by adding 1% phosphoric acid or 1 N sodium hydroxide. 2 μL of dosing solution (50 μM for test compounds and 100 μM for positive control (propantheline bromide)) was mixed with 98 μL of blank plasma to achieve 1 μM test compound and 2 μM positive control of final concentration. The mixture was incubated, and samples were withdrawn from the incubations at the pre-determined time points of 0, 0.5, 1, 2, 4 and 6 hr (in duplicate) at 37° C. in water bath. At each corresponding time point 10 μL inhibitor and 20 μL ascorbic acid and 2 μL formic acid (20%) are added, and then added 400 μL of “stop solution” (200 ng/mL tolbutamide plus 200 ng/mL labetalol in 50% ACN/MeOH) to precipitate protein. The substance was mixed thoroughly and thereafter Centrifugated at 4,000 rpm for 20 minutes. Then an aliquot of supernatant (50 μL) was transferred from each well to a sample plate and mixed with 100 μL ultrapure water. The plate was shaked at 800 rpm for about 10 minutes before submitting to LC-MS/MS analysis.
as §1

[2] = PK experiments in rats, plasma compound (I) after oral dosing; format: in vivo, Han Wistar rats; details: oral dosing, rats
Experimental: Plasma was placed on water-ice following collection. Final storage at approximately −70° C.
Mobile phase B: Acetonitrile. […] Flow rate 0.5 mL/min.
The rats had unrestricted access to the diet.
Mobile phase B: Acetonitrile+0.2% formic acid. […] Flow rate 0.3 mL/min.
The rats received a standard laboratory diet Teklad 2014C. The rats had unrestricted access to the diet.

human 5-HT2B receptor = human 5-HT2B receptor (Homo sapiens (Human), UniProt P41595); assay: 5-HT2B agonist activity assay (IP1 production, HTRF); format: cell-based; details: read-out: 5-HT2B agonist activity, percent of control response
human 5-HT2B receptor, sequence (P41595 whole entry): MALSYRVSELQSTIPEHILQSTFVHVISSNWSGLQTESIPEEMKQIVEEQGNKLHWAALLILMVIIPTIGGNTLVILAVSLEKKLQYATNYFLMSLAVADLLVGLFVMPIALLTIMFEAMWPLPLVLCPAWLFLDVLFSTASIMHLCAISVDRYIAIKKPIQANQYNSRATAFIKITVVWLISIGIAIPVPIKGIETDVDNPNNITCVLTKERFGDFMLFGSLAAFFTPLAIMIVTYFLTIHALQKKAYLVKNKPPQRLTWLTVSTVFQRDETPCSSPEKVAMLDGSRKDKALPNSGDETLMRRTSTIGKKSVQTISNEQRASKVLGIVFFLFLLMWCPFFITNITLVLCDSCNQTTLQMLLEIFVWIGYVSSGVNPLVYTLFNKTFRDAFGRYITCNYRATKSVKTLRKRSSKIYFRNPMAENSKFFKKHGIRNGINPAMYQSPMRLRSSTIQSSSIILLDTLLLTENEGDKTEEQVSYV
Experimental: Evaluation of the agonist activity of compounds (I), (Ia), (Ib), (Ic), (Ia-iab), compound (2), compound (9), compound (15), compound (27), A2, A3, and A7 at the human 5-HT2B receptor was performed by Eurofins/Cerep (France) measuring the compound effects on inositol monophosphate (IP1) production using the HTRF detection method. Briefly, the human 5-HT2B receptor was expressed in transfected CHO cells. The cells were suspended in a buffer containing 10 mM Hepes/NaOH (pH 7.4), 4.2 mM KCl, 146 mM NaCl, 1 mM CaCl2, 0.5 mM MgCl2, 5.5 mM glucose and 50 mM LiCl, then distributed in microplates at a density of 4100 cells/well and incubated for 30 minutes at 37° C. in the presence of buffer (basal control), test compound or reference agonist. For stimulated control measurement, separate assay wells contained 1 μM 5-HT. Following incubation, the cells were lysed and the fluorescence acceptor (fluorophen D2-labeled IP1) and fluorescence donor (anti-IP1 antibody labeled with europium cryptate) were added. After 60 minutes at room temperature, the fluorescence transfer was measured at lambda(Ex) 337 nm and lambda(Em) 620 and 665 nm using a microplate reader (Rubystar, BMG). The IP1 concentration was determined by dividing the signal measured at 665 nm by that measured at 620 nm (ratio). The results were expressed as a percent of the control response to 1 μM 5-HT. The standard reference agonist was 5-HT, which was tested in each experiment at several concentrations to generate a concentration-response curve from which its EC50 value is calculated as described above for dopamine functional assays.

male CD rats = assay: Rat locomotor activity (hyperactivity) assay, open field; format: in vivo; details: (Id-ia) 10 to 300 μg/kg p.o.; apomorphine 3 mg/kg s.c.; pramipexole 0.3 mg/kg s.c.
Experimental: In total, 206 male CD rats (Charles River, Germany) weighing 200-250 grams (165-190 grams upon arrival) were used in the study. Animals were housed at a standard temperature (22±1° C.) and in a light-controlled environment (lights on from 7 am to 8 pm) with ad libitum access to food and water. The experiment described below was performed in accordance with the standard operating procedures of Charles River Discovery Research Services Finland Ltd. and in accordance with the national Animal Experiment Board of Finland (Elainkoelautakunta, ELLA) authority on animal testing.
The test device is a square Plexiglass-arena (measuring 40×40×40 cm), in which the movement paths of the rats are recorded by an activity monitor (Med. Associates Inc.). Before the test period is initiated, rats are habituated to their test cage for 60 minutes. Upon completion of habituation, animals were treated with either compound or vehicle and placed back into the open field apparatus. The main test parameter measured is ambulatory distance (recorded in 5 minute segments). Overall time of measurement after receiving initial treatment was 360 minutes. Total follow up period in the study was 420 minutes, including 60 minutes of habituation.
Blood samples were taken and processed and analyzed as described under PK experiments in rats in Example 3.

CCCN1CCC[C@@H]2Cc3c(ccc(O[C@@H]4O[C@H](C(=O)O)[C@@H](O)[C@H](O)[C@H]4O)c3O[C@@H]3O[C@H](C(=O)O)[C@@H](O)[C@H](O)[C@H]3O)C[C@H]21 [(Id-iab), (2S,2′S,3S,3′S,4S,4′S,5R,5′R,6S,6′S)-6,6′-(((4aR,10aR)-1-propyl-1,2,3,4,4a,5,10,10a-octahydrobenzo[g]quinoline-6,7-diyl)bis(oxy))bis(3,4,5-trihydroxytetrahydro-2H-pyran-2-carboxylic acid)]
Observed metabolite, Incubation in human hepatocytes (human hepatocytes): Compound (I) | Observed metabolite, Incubation in human plasma [1]: Compound (I) | Observed metabolite, In vivo PK study after oral dosing (rats) [2]: Compound (I)

CCCN1CCC[C@@H]2Cc3c(ccc(OCc4ccccc4)c3O[C@@H]3O[C@H](C(=O)OC)[C@@H](OC(C)=O)[C@H](OC(C)=O)[C@H]3OC(C)=O)C[C@H]21 [Compound (1), (2S,3R,4S,5S,6S)-2-(((4aR,10aR)-7-(benzyloxy)-1-propyl-1,2,3,4,4a,5,10,10a-octahydrobenzo[g]quinolin-6-yl)oxy)-6-(methoxycarbonyl)tetrahydro-2H-pyran-3,4,5-triyl triacetate]
Observed metabolite, Incubation in human hepatocytes (human hepatocytes): Compound A2,; also recorded: Compound (4) | Observed metabolite, Incubation in human plasma [1]: Compound A2,; also recorded: compound (2)

CCCN1CCC[C@@H]2Cc3c(ccc(OCc4ccccc4)c3O[C@@H]3O[C@H](C(=O)OCc4ccccc4)[C@@H](OC(=O)C(C)(C)C)[C@H](OC(=O)C(C)(C)C)[C@H]3OC(=O)C(C)(C)C)C[C@H]21 [Compound (5), (2S,3R,4S,5S,6S)-2-(((4aR,10aR)-7-(benzyloxy)-1-propyl-1,2,3,4,4a,5,10,10a-octahydrobenzo[g]quinolin-6-yl)oxy)-6-((benzyloxy)carbonyl)tetrahydro-2H-pyran-3,4,5-triyl tris(2,2-dimethylpropanoate)]
Observed metabolite, Incubation in human hepatocytes (human hepatocytes): Compound (24) | Observed metabolite, Incubation in human plasma [1]: Compound (24)

CCCN1CCC[C@@H]2Cc3c(ccc(OCc4ccccc4)c3O[C@@H]3O[C@H](C(=O)OCC)[C@@H](OC(C)=O)[C@H](OC(C)=O)[C@H]3OC(C)=O)C[C@H]21 [Compound (10), (2S,3R,4S,5S,6S)-2-(((4aR,10aR)-7-(benzyloxy)-1-propyl-1,2,3,4,4a,5,10,10a-octahydrobenzo[g]quinolin-6-yl)oxy)-6-(ethoxycarbonyl)tetrahydro-2H-pyran-3,4,5-triyl triacetate]
Observed metabolite, Incubation in human hepatocytes (human hepatocytes): Compound A2,; also recorded: Compound (4) | Observed metabolite, Incubation in human plasma [1]: Compound A2,; also recorded: Compound (4)

CCCN1CCC[C@@H]2Cc3c(ccc(OCc4ccccc4)c3O[C@@H]3O[C@H](C(=O)OCC)[C@@H](OC(=O)C(C)(C)C)[C@H](OC(=O)C(C)(C)C)[C@H]3OC(=O)C(C)(C)C)C[C@H]21 [Compound (13), (2S,3R,4S,5S,6S)-2-(((4aR,10aR)-7-(benzyloxy)-1-propyl-1,2,3,4,4a,5,10,10a-octahydrobenzo[g]quinolin-6-yl)oxy)-6-(ethoxycarbonyl)tetrahydro-2H-pyran-3,4,5-triyl tris(2,2-dimethylpropanoate)]
Observed metabolite, Incubation in human hepatocytes (human hepatocytes): Compound (14)

CCCN1CCC[C@@H]2Cc3c(ccc(OC)c3O[C@@H]3O[C@H](C(=O)OCc4ccccc4)[C@@H](OC(=O)C(C)(C)C)[C@H](OC(=O)C(C)(C)C)[C@H]3OC(=O)C(C)(C)C)C[C@H]21 [Compound (20), (2S,3S,4S,5R,6S)-2-((benzyloxy)carbonyl)-6-(((4aR,10aR)-7-methoxy-1-propyl-1,2,3,4,4a,5,10,10a-octahydrobenzo[g]quinolin-6-yl)oxy)tetrahydro-2H-pyran-3,4,5-triyltris(2,2-dimethylpropanoate)]
Observed metabolite, Incubation in human hepatocytes (human hepatocytes): Compound (21) | Observed metabolite, Incubation in human plasma [1]: Compound (21)

CCCN1CCC[C@@H]2Cc3c(ccc(OC)c3O[C@@H]3O[C@H](C(=O)OC)[C@@H](OC(=O)C(C)(C)C)[C@H](OC(=O)C(C)(C)C)[C@H]3OC(=O)C(C)(C)C)C[C@H]21 [Compound (22), (2S,3S,4S,5R,6S)-2-((methoxy)carbonyl)-6-(((4aR,10aR)-7-methoxy-1-propyl-1,2,3,4,4a,5,10,10a-octahydrobenzo[g]quinolin-6-yl)oxy)tetrahydro-2H-pyran-3,4,5-triyl tris(2,2-dimethylpropanoate)]
Observed metabolite, Incubation in human hepatocytes (human hepatocytes): Compound (21) | Observed metabolite, Incubation in human plasma [1]: Compound (21)

CCCN1CCC[C@@H]2Cc3c(ccc(OCc4ccccc4)c3O[C@@H]3O[C@H](C(=O)OC)[C@@H](OC(=O)C(C)(C)C)[C@H](OC(=O)C(C)(C)C)[C@H]3OC(=O)C(C)(C)C)C[C@H]21 [Compound (25), (2S,3R,4S,5S,6S)-2-(((4aR,10aR)-7-(benzyloxy)-1-propyl-1,2,3,4,4a,5,10,10a-octahydrobenzo[g]quinolin-6-yl)oxy)-6-(methoxycarbonyl)tetrahydro-2H-pyran-3,4,5-triyl tris(2,2-dimethylpropanoate)]
Observed metabolite, Incubation in human hepatocytes (human hepatocytes): Compound A2,; also recorded: Compound (24) | Observed metabolite, Incubation in human plasma [1]: Compound A2,; also recorded: Compound (24)

CCCN1CCC[C@@H]2Cc3c(ccc(OC)c3O)C[C@H]21 [Compound A7, (4aR,10aR)-7-methoxy-1-propyl-1,2,3,4,4a,5,10,10a-octahydrobenzo[g]quinolin-6-ol]
Observed metabolite, Incubation in human hepatocytes (human hepatocytes): Compound (I) | activity at 10 µM (human 5-HT2B receptor): 27% | Observed metabolite, In vivo PK study after oral dosing (rats) [2]: Compound (I)

CCCN[C@H]1CCc2nc(N)sc2C1 [Pramipexole, pramipexole, reference compound]
effect on locomotor activity (male CD rats): increase in activity
